# In US20230200393A1, “SELECTIVE HERBICIDES BASED ON SUBSTITUTED ISOXAZOLIN CARBOXAMIDES AND METCAMIFEN” (Bayer Aktiengesellschaft, priority 2020, published 2023):
# Assays:
# TRZAS Triso [1] = test: Safener seed treatment, pre-emergence herbicide crop damage; format: in vivo, spring wheat; settings: 21 (Final) DAT; for HER effect: no safener
# Protocol: (§1) For the safener seed treatment, sufficient seeds of the respective crops (spring wheat, TRZAS; spring barley, HORVS; maize, ZEAMA) were weighed into screw top glass bottles approximately twice the volume of the seeds.
# (§2) The specified safeners, formulated as wettable powder (WP) were weighed out so that the specified rates (g a.i./kg seed) would be obtained, dissolved in water (1 ml water per 10 g of seeds), and added to the seeds to produce a slurry.
# (§3) The bottles were capped and then placed in an overhead shaker (set at medium speed for ca. 60 minutes) so that the seeds were evenly coated with the slurry. The bottles were uncapped and the seeds were either placed on paper and dried for an interval of 3-4 hours prior to sowing, or directly sown. Seeds were placed in sandy loam soil in pots of a diameter of 7-8 cm, and covered with soil.
# (§4) Pre-emergence application of the specified herbicides was done subsequently, on two sets of plants:
# (§5) a) seed treatment with safener, as described above
# (§6) The herbicides were formulated as WP and was sprayed onto the soil surface as an aqueous suspension at an equivalent water application rate of 300 l/ha.
# (§7) After application, the test plants were kept in the greenhouse under good growth conditions. At intervals up to 4 weeks after application (=28 days after treatment; DAT), % crop damage observed on the treated plants was scored visually in comparison to control plants that had not received any safener or herbicide treatment.
# (§8) Values in the table below are mean values of at least 2 replicates.
# ZEAMA Sileno [2] = test: as above; format: in vivo, maize; settings: for HER effect: no safener
# Protocol: as §1, §2, §3, §4, §5, §6, §7, §8
# ZEAMA Sileno [3] = test: Tank-mix post-emergence crop damage, herbicide with/without safener metcamifen; format: in vivo, maize; settings: for HER effect + SAF / Reduction [Difference] / Reduction [%]: Final; for HER effect: no safener, Final assessment, post-emergence
# Protocol: (§9) Seeds of crops (spring wheat, TRZAS; spring barley, HORVS; maize, ZEAMA) were placed in sandy loam soil in peat pots, covered with soil and cultivated in a greenhouse under good growth conditions. Two to three weeks after sowing, the test plants were treated at the 1 to 3-leaf stage. The herbicide/safener active compound combinations according to the invention, formulated as wettable powders or emulsion concentrates, and, in parallel tests, the correspondingly formulated individual active compounds were sprayed onto the green parts of the plants in various dosages using an amount of water of 300 l/ha (converted).
# (§10) The pots were returned under good growing conditions in a glasshouse and a visual assessment of herbicidal effects was made at intervals from 1 to 3 weeks after herbicide application (DAT=days after treatment). Assessment was on a percentage basis in comparison with untreated control plants (0%=no injury, 100%=complete kill).
# TRZAS Triso [4] = test: as above; format: in vivo, spring wheat; settings: 21 DAT
# Protocol: as §9, §10
# [5] = HER 5 g a.i./ha + metcamifen seed treatment 0.25 g a.i./kg seed
# [6] = HER 40 g a.i./ha + metcamifen seed treatment 0.25 g a.i./kg seed, 14 DAT
# [7] = HER 40 g a.i./ha + metcamifen seed treatment 0.25 g a.i./kg seed, 26 DAT
# [8] = HER 80 g a.i./ha + metcamifen seed treatment 0.25 g a.i./kg seed, 14 DAT
# [9] = HER 8 g a.i./ha + metcamifen 100 g a.i./ha
# [10] = HER 32 g a.i./ha + metcamifen 50 g a.i./ha
# [11] = HER 15 g a.i./ha + metcamifen seed treatment 0.25 g a.i./kg seed
# [12] = HER 40 g a.i./ha pre-emergence, 14 DAT
# [13] = HER 80 g a.i./ha + metcamifen seed treatment 0.25 g a.i./kg seed, 26 DAT
# [14] = HER 0.5 g a.i./ha + metcamifen 50 g a.i./ha
# [15] = HER 2 g a.i./ha + metcamifen 50 g a.i./ha
# [16] = HER 8 g a.i./ha + metcamifen 50 g a.i./ha
# [17] = HER 32 g a.i./ha + metcamifen 100 g a.i./ha
compound,measurement,setting,value
C=CC1(C(=O)NC2COC(C(=O)OC)C2)CC(c2cc(F)cc(F)c2)=NO1 (mixture of isomers) [Example 1.68],HER effect + SAF,TRZAS Triso [1]; [5],10%
same,Reduction [%],TRZAS Triso [1]; [5],78%
same,HER effect + SAF,ZEAMA Sileno [2]; [6],30%
same,Reduction [%],ZEAMA Sileno [2]; [6],68%
same,Reduction [Difference],ZEAMA Sileno [2]; [6],63
same,Reduction [%],ZEAMA Sileno [2]; [7],74%
same,Reduction [Difference],ZEAMA Sileno [2]; [7],70
same,HER effect,"ZEAMA Sileno [2]; HER 40 g a.i./ha pre-emergence, 26 DAT",95%
same,HER effect + SAF,ZEAMA Sileno [2]; [8],75%
same,Reduction [%],ZEAMA Sileno [2]; [8],23%
same,Reduction [Difference],ZEAMA Sileno [2]; [8],22
same,HER effect,"ZEAMA Sileno [2]; HER 80 g a.i./ha pre-emergence, 14 DAT",97%
same,HER effect + SAF,ZEAMA Sileno [3]; [9],48%
same,Reduction [Difference],ZEAMA Sileno [3]; [9],48
same,HER effect,ZEAMA Sileno [3]; HER 8 g a.i./ha,96%
same,HER effect + SAF,ZEAMA Sileno [3]; [10],67%
same,Reduction [%],ZEAMA Sileno [3]; [10],32%
same,Reduction [Difference],ZEAMA Sileno [3]; [10],31
same,HER effect,ZEAMA Sileno [3]; HER 32 g a.i./ha,98%
COC(=O)C1COCC1NC(=O)C1(C)CC(c2cc(F)cc(F)c2)=NO1 (mixture of isomers) [Example 1.93],HER effect + SAF,TRZAS Triso [1]; [5],5%
same,Reduction [%],TRZAS Triso [1]; [5],86%
same,Reduction [Difference],TRZAS Triso [1]; [5],30
same,HER effect,TRZAS Triso [1]; HER 5 g a.i./ha pre-emergence,35%
same,HER effect + SAF,TRZAS Triso [1]; [11],10%
same,Reduction [%],TRZAS Triso [1]; [11],85%
same,Reduction [Difference],TRZAS Triso [1]; [11],55
same,HER effect,TRZAS Triso [1]; HER 15 g a.i./ha pre-emergence,65%
COCCOC(=O)C1C=CC(NC(=O)C2(C(F)(F)F)CC(c3cc(F)cc(C#N)c3)=NO2)C1 (stereo not drawn) [Example 1.2],HER effect + SAF,ZEAMA Sileno [2]; [6],20%
same,Reduction [%],ZEAMA Sileno [2]; [6],50%
same,Reduction [Difference],ZEAMA Sileno [2]; [6],20
same,HER effect,ZEAMA Sileno [2]; [12],40%
COCCOC(=O)C1C=CC(NC(=O)C2(C)CC(c3cc(Cl)cc(C#N)c3)=NO2)C1 (stereo not drawn) [Example 1.5],HER effect + SAF,ZEAMA Sileno [2]; [8],35%
same,Reduction [%],ZEAMA Sileno [2]; [8],42%
same,HER effect + SAF,ZEAMA Sileno [2]; [13],25%
same,Reduction [%],ZEAMA Sileno [2]; [13],44%
CSCCOC(=O)C1C=CC(NC(=O)C2(C(F)(F)F)CC(c3cc(F)cc(F)c3)=NO2)C1 (stereo not drawn) [Example 1.7],HER effect + SAF,ZEAMA Sileno [2]; [6],55%
same,Reduction [%],ZEAMA Sileno [2]; [6],34%
same,Reduction [Difference],ZEAMA Sileno [2]; [6],28
same,Reduction [%],ZEAMA Sileno [2]; [7],44%
same,Reduction [Difference],ZEAMA Sileno [2]; [7],20
same,HER effect,ZEAMA Sileno [2]; [12],83%
C=CC1(C(=O)NC2C=CC(C(=O)OC)C2)CC(c2cc(F)cc(F)c2)=NO1 (stereo not drawn) [Example 1.26],HER effect,ZEAMA Sileno [2]; [12],25%
same,Reduction [%],ZEAMA Sileno [2]; [8],86%
same,Reduction [%],ZEAMA Sileno [2]; [13],86%
same,HER effect + SAF,TRZAS Triso [4]; [14],20%
same,Reduction [%],TRZAS Triso [4]; [14],50%
same,HER effect + SAF,TRZAS Triso [4]; [15],80%
same,Reduction [%],TRZAS Triso [4]; [15],11%
same,Reduction [Difference],TRZAS Triso [4]; [15],10
same,HER effect,"TRZAS Triso [4]; HER 2 g a.i./ha, no safener",90%
same,HER effect + SAF,ZEAMA Sileno [3]; [16],22%
same,Reduction [%],ZEAMA Sileno [3]; [16],61%
same,Reduction [Difference],ZEAMA Sileno [3]; [16],35
same,HER effect,ZEAMA Sileno [3]; HER 8 g a.i./ha,57%
same,HER effect + SAF,ZEAMA Sileno [3]; [17],35%
same,Reduction [%],ZEAMA Sileno [3]; [17],63%
same,Reduction [Difference],ZEAMA Sileno [3]; [17],59
same,HER effect,ZEAMA Sileno [3]; HER 32 g a.i./ha,94%
C=CC1(C(=O)NC2COC(C(=O)OC)C2)CC(c2cc(F)cc(F)c2)=NO1 (stereo not drawn) [Example 1.69],HER effect + SAF,ZEAMA Sileno [2]; [6],20%
same,Reduction [%],ZEAMA Sileno [2]; [6],79%
same,Reduction [Difference],ZEAMA Sileno [2]; [6],75
same,Reduction [%],ZEAMA Sileno [2]; [7],67%
same,Reduction [Difference],ZEAMA Sileno [2]; [7],60
C=CC1(C(=O)NC2COC(C(=O)OC)C2)CC(c2cc(F)cc(F)c2)=NO1 (stereo not drawn) [Example 1.70],HER effect + SAF,ZEAMA Sileno [2]; [6],20%
same,Reduction [%],ZEAMA Sileno [2]; [6],75%
same,Reduction [Difference],ZEAMA Sileno [2]; [6],60
same,HER effect + SAF,ZEAMA Sileno [2]; [7],5%
same,Reduction [%],ZEAMA Sileno [2]; [7],94%
same,Reduction [Difference],ZEAMA Sileno [2]; [7],80
same,Reduction [%],ZEAMA Sileno [2]; [8],63%
same,Reduction [Difference],ZEAMA Sileno [2]; [8],60
same,HER effect + SAF,ZEAMA Sileno [2]; [13],25%
same,Reduction [%],ZEAMA Sileno [2]; [13],74%
same,Reduction [Difference],ZEAMA Sileno [2]; [13],70
C=CC1(C(=O)NC2C=C(C(=O)OC)OC2)CC(c2cc(C)cc(C)c2)=NO1 (stereo not drawn) [Example 1.90],Reduction [%],ZEAMA Sileno [2]; [13],83%
same,Reduction [Difference],ZEAMA Sileno [2]; [13],25
same,HER effect,"ZEAMA Sileno [2]; HER 80 g a.i./ha pre-emergence, 26 DAT",30%
COC(=O)C1OCCC1NC(=O)C1(C)CC(c2cc(F)cc(F)c2)=NO1 (stereo not drawn) [Example 1.92],Reduction [%],ZEAMA Sileno [2]; [6],87%
same,Reduction [Difference],ZEAMA Sileno [2]; [6],65
same,HER effect + SAF,ZEAMA Sileno [2]; [7],0%
same,Reduction [%],ZEAMA Sileno [2]; [7],100%
